Measurements published in patent US9862684B2, “Modulation of K2P channels” (The Regents of the University of California, priority 2013, dated 2018).
pEC50: −log10 of the molar value.

Columns and labels:
TREK-1 = target: T1, TREK-1 (Mus musculus, UniProt P97438); assay: Modulation of TREK-1 by select compounds (agonist activity), Table 3; assay type: cell-based, Murine; settings: for pEC50: agonist activity on TREK-1
T1 construct: expressed in transfected cells
T1 sequence (P97438 1-411 isoform P97438-2): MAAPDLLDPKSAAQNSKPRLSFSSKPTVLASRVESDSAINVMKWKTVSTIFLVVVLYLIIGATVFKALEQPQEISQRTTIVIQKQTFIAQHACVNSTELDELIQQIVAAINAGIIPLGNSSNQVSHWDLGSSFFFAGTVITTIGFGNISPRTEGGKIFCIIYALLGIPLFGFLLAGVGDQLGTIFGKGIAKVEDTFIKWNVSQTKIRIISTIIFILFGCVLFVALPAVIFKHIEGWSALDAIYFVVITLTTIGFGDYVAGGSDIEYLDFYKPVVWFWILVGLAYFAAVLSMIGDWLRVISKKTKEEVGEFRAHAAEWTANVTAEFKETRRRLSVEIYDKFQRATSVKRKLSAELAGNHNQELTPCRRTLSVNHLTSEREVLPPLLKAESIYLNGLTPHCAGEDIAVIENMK
Procedure: (§1) Two-electrode voltage clamp recordings were performed from defolliculated stage V-VI Xenopus oocytes 24-48 hours after injection with 0.015-6.0 ng cRNA, using microelectrodes (0.3-3.0 MΩ) filled with 3M KCl. […] Recording solutions (mM): 2K (96 NaCl, 2 KCl, 1.8 CaCl2, 2 MgCl2), 90K (90 KCl, 8 NaCl, 1.8 CaCl2, 2 MgCl2), were buffered 5 mM HEPES pH 7.4. For K2P recordings, currents we elicited by a 1 second long ramp from −150 to +50 mV from a holding potential of −80 mV (2K), or −100 to +50 mV from a holding potential of 0 mV (90K). For KCNQ2 recordings, currents were elicited by a step protocol from −120 to 60 mV, in 20 mV increments, from a holding potential of −80 mV. […] Currents were elicited by a 1 second long ramp from −150 to +50 mV from a holding potential of −80 mV.

K2P2.1 (TREK-1) = target: T2, K2P2.1 (TREK-1) (Mus musculus, UniProt P97438); assay: Two-electrode voltage clamp of Xenopus oocytes expressing K2P2.1 (TREK-1); assay type: cell-based, Murine; settings: Xenopus oocytes; for effect on K2P2.1 (TREK-1) function / activity (in words): two-electrode voltage clamp
T2 construct: expressed in transfected cells; host or cells: Xenopus oocytes (cRNA injection, pGEMHE/pMO)
T2 sequence (P97438 1-411 isoform P97438-2): T1 sequence (P97438 1-411 isoform P97438-2)
Procedure: as §1

| comments (comparison with ML67-33 / ML67-142, dose-response remark) (TREK-1) | % activity at 50 μM (TREK-1) [%] | pEC50 (TREK-1) | Compound | other results |
| --- | --- | --- | --- | --- |
| Not better than ML67-33 | 96 | < 4.41 | Brc1ccc2c(c1)Sc1cc(Br)ccc1N2CCc1nnn[nH]1 [ML67-37, 3,7-dibromo-10-[2-(1H-tetrazol-5-yl)ethyl] phenothiazine] | – |
| Not better than ML67-33 | 68.8 | < 4.41 | Brc1ccc2c(c1)Oc1cc(Br)ccc1N2CCc1nnn[nH]1 [ML67-38, 3,7-dibromo-10-[2-(1H-tetrazol-5-yl)ethyl] phenoxazine] | – |
| – | – | 4.74 | Clc1ccc2c(c1)C1(CCCC1)c1cc(Cl)ccc1N2CCc1nnn[nH]1 [ML67-138, 2,7-dichloro-10-[2-(1H-tetrazol-5-yl)ethyl]spiro [acridine-9,1′-cyclopentane]] | – |
| Not better than ML67-33 | 60.7 | < 4.41 | Clc1ccc2c(c1)C1(CCOCC1)c1cc(Cl)ccc1N2CCc1nnn[nH]1 [ML67-139, 2,7-dichloro-10-[2-(1H-yl)ethyl]spiro [acridine-9,4′-oxane]] | – |
| Not better than ML67-33 | 17.8 | < 4.41 | c1ccc2c(c1)Oc1ccccc1N2CCc1nnn[nH]1 [ML67-35, 10-[2-(1H-tetrazol-5-yl)ethyl] phenoxazine] | – |
| Not better than ML67-33 | 57.7 | < 4.41 | O=C(O)CCN1c2ccc(Cl)cc2C2(CCCCC2)c2cccc(Cl)c21 [ML67-140, 3-(2,5-dichlorospiro [acridine-9,1′-cyclohexane]-10-yl)propanoic acid] | – |
| No plateau | – | ~3.70 | O=C(O)CCN1c2ccc(Cl)cc2Sc2cc(Cl)ccc21 [ML67-26, 3-(3,7-dichloro-phenothiazin-10-yl)propanoic acid] | – |
| Not better than ML67-33 | – | < 4.41 | C#Cc1ccc(S(=O)(=O)NC(=O)CCN2c3ccc(Br)cc3C3(CCCCC3)c3cc(Br)ccc32)cc1 [ML67-150, 3-{2,7-dibromo-10H-spiro[acridine-9,1′-cyclohexane]-10-yl}-N-(4-ethynyl-benzenesulfonyl) propanamide] | – |
| – | – | – | O=C(O)CCCn1c2ccc(Cl)cc2c2cc(Cl)ccc21 [ML67-15, 4-(3,6-dichlorocarbazol-9-yl) butanoic acid] | Emax (fold) at 200 μM (K2P2.1 (TREK-1); at 200 μM): 4.7 ± 0.9 at 200 μM fold; effect on K2P2.1 (TREK-1) function / activity (in words) (K2P2.1 (TREK-1)): did not significantly improve potency |
| – | – | < 4.41 | c1ccc2c(c1)Sc1ccccc1N2CCc1nnn[nH]1 [ML67-36, 10-[2-(1H-tetrazol-5-yl)ethyl] phenothiazine] | – |
| Not better than ML67-33 | 84.1 | < 4.41 | O=C(O)CCN1c2ccc(Br)cc2C2(CCCCC2)c2cc(Br)ccc21 [ML67-147, 3-{2,7-dibromo-10H-spiro[acridine-9,1′-cyclohexane]-10-yl}propanoic acid] | – |
| Not better than ML67-33 | 13.4 | < 4.41 | Brc1ccc2c3ccc(Br)cc3n(CCc3nnn[nH]3)c2c1 [ML67-34, 2,7-dibromo-9-[2-(1H-tetrazol-5-yl)ethyl]carbazole] | – |
| Not better than ML67-33 | 25.9 | < 4.41 | OCc1ccc2c(c1)C1(CCCCC1)c1cc(Br)ccc1N2CCc1nnn[nH]1 [ML67-146, 2-bromo-10-[2-(1H-1,2,3,4-tetrazol-5-yl)ethyl]-10H-spiro[acridine-9,1′-cyclohexane]-7-ylmethanol] | – |
| Not better than ML67-33 | 32.3 | < 4.41 | c1ccc2c(c1)N(CCc1nnn[nH]1)c1ccccc1C21CCCCC1 [ML67-144, 10-[2-(1H-tetrazol-5-yl)ethyl]spiro [acridine-9,1′-cyclohexane]] | – |
| No plateau | – | < 3.30 | O=C(O)CCn1c2ccccc2c2cc(I)ccc21 [ML67-14, 3-(3-iodocarbazol-9-yl)propanoic acid] | – |
| – | – | > 3.90 | Clc1ccc2c(c1)c1cc(Cl)ccc1n2[C@H]1C[C@H](c2nnn[nH]2)C1 [ML67-30, 3,6-dichloro-9-[3-(1H-tetrazol-5-yl)cyclobutyl] carbazole (trans)] | – |
| No better than ML67-33 | 45 | < 4.41 | O=C(O)CCC(CN1c2ccc(Br)cc2C2(CCCCC2)c2cc(Br)ccc21)C(=O)O (stereo not shown) [ML67-152, 2-{2,7-dibromo-10H-spiro[acridine-9,1′-cyclohexane]-10-ylmethyl} pentanedioic acid] | – |
| – | – | – | O=C(O)CCn1c2ccccc2c2ccccc21 [ML67-2, 3-carbazol-9-ylpropanoic acid] | Emax (fold) at 500 μM (K2P2.1 (TREK-1); at 500 μM): 1.3 ± 0.1 at 500 μM fold; effect on K2P2.1 (TREK-1) function / activity (in words) (K2P2.1 (TREK-1)): reduced activity |
| Not better than ML67-33 | 29.2 | < 4.41 | CC1(C)c2ccccc2N(CCc2nnn[nH]2)c2ccccc21 [ML67-39, 9,9-dimethyl-10-[2-(1H-tetrazol-5-yl)ethyl]acridine] | – |
| – | 100 | – | CC1(C)c2cc(Br)ccc2N(CCc2nnn[nH]2)c2ccc(Br)cc21 [ML67-137, 2,7-dibromo-9,9-dimethyl-10-[2-(1H-tetrazol-5-yl)ethyl]acridine] | % activity at 10 μM (TREK-1; 10 μM): 80%; Emax (fold) at 100 μM (K2P2.1 (TREK-1); at 100 μM (FIG. 4, 7 legends), marked ** in Table 1, footnote not given): 9.2 ± 1.4** fold; effect on K2P2.1 (TREK-1) function / activity (in words) (K2P2.1 (TREK-1)): did not significantly improve activity |
| – | – | 5.07 | Clc1ccc2c(c1)C1(CCCCC1)c1cc(Cl)ccc1N2CCc1nnn[nH]1 [ML67-142, 2,7-dichloro-10-[2-(1H-tetrazol-5-yl)ethyl]spiro [acridine-9,1′-cyclohexane]] | – |

| Compound | comments (comparison with ML67-33 / ML67-142, dose-response remark) (TREK-1) | % activity at 50 μM (TREK-1) [%] | pEC50 (TREK-1) | other results |
| --- | --- | --- | --- | --- |
| Clc1ccc2c(c1)c1cc(Cl)ccc1n2CCc1nnn[nH]1 [ML67-18, 3,6-dichloro-9-[2-(1H-tetrazol-5-yl)ethyl]carbazole] | – | – | 3.90 | Emax (fold) (K2P2.1 (TREK-1); fold over basal current, no concentration stated): ~18 fold |
| Clc1ccc2c(c1)C1(CCCCC1)c1cccc(Cl)c1N2CCc1nnn[nH]1 [ML67-143, 2,5-dichloro-10-[2-(1H-tetrazol-5-yl)ethyl]spiro [acridine-9,1′-cyclohexane]] | Better than ML67-33; Not better than (ML67-142) | – | 4.41 to 5.07 | – |
| Brc1ccc2c(c1)C1(CCCCC1)c1cc(Br)ccc1N2CCc1nnn[nH]1 [ML67-145, 2,7-dibromo-10-[2-(1H-1,2,3,4-tetrazol-5-yl)ethyl]-10H-spiro[acridine-9,1′-cyclohexane]] | Better than ML67-33; Not better than (ML67-142) | – | 4.41 to 5.07 | – |
| CS(=O)(=O)NC(=O)CCN1c2ccc(Br)cc2C2(CCCCC2)c2cc(Br)ccc21 [ML67-148, 3-{2,7-dibromo-10H-spiro[acridine-9,1′-cyclohexane]-10-yl}-N-methanesulfonyl-propanamide] | Better than ML67-33; Not better than (ML67-142) | – | 4.41 to 5.07 | – |
| O=C(O)CCN1c2ccc(Cl)cc2C2(CCCCC2)c2cc(Cl)ccc21 [ML67-141, 3-(2,7-dichlorospiro [acridine-9,1′-cyclohexane]-10-yl)propanoic acid] | Better than ML67-33; not better than (ML67-142) | – | 4.41 to 5.07 | – |
